This passage reports relative viability results from the supplement of paper PMC10307832.

Experiment in all cases: relative viability (nuclei count vs DMSO), 5 days (fraction); higher = more cells survive
Compound in the assay “XMD8-85 + Linsitinib”: CN1CCN(CC1)C2=CC(=C(C=C2)NC3=NC=C4C(=N3)N(C5=CC=CC=C5C(=O)N4C)C)OC [XMD8-85] + C[C@]1(O)C[C@@H](c2nc(-c3ccc4ccc(-c5ccccc5)nc4c3)c3c(N)nccn32)C1 [Linsitinib] (partner 1 µM)
The gist of the method:
(§1)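 After 5 days of treatment, lung cancer cells in 1536-well plates were fixed and stained in a single step (final 0.05% Triton X-100, 1% formaldehyde, 1 ug/ml Hoechst) and their nuclei counted on 4× images. Treatment had been applied by pin tool the day after seeding as one drug alone or as a fixed anchor-drug dose with five library-drug doses (not always all listed) in √10 steps. Relative viability is the nuclei count of treated wells divided by that of vehicle wells, and values are medians of duplicate plates.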

Compound in the assay “XMD8-85 + Decitabine”: CN1CCN(CC1)C2=CC(=C(C=C2)NC3=NC=C4C(=N3)N(C5=CC=CC=C5C(=O)N4C)C)OC [XMD8-85] + Nc1ncn([C@H]2C[C@H](O)[C@@H](CO)O2)c(=O)n1 [Decitabine] (partner 2 µM)
An outline of the steps: as §1

Compound in the assay “4EGI-1 + Luminespib”: O=C(O)C(Cc1ccccc1[N+](=O)[O-])=NNc1nc(-c2ccc(Cl)c(Cl)c2)cs1 (mixture of isomers) [4EGI-1] + CCNC(=O)c1noc(-c2cc(C(C)C)c(O)cc2O)c1-c1ccc(CN2CCOCC2)cc1 [Luminespib] (partner 0.01 µM)
The gist of the method:
as §1

Compound in the assay “4EGI-1 + Pemetrexed”: O=C(O)C(Cc1ccccc1[N+](=O)[O-])=NNc1nc(-c2ccc(Cl)c(Cl)c2)cs1 (mixture of isomers) [4EGI-1] + Nc1nc2[nH]cc(CCc3ccc(C(=O)N[C@@H](CCC(=O)O)C(=O)O)cc3)c2c(=O)[nH]1 [Pemetrexed] (partner 0.2 µM)
The gist of the method: as §1

NCI-H1792: the relative viability in the assay with XMD8-85 + Linsitinib (first compound 0.08 µM) is 0.47; in the assay with XMD8-85 + Linsitinib (first compound 0.253 µM), 0.521; with XMD8-85 + Linsitinib (first compound 2.53 µM) it was 0.463; with XMD8-85 + Linsitinib (first compound 8 µM), 0.556; with XMD8-85 + Decitabine (first compound 0.253 µM), 0.468; in the assay with XMD8-85 + Decitabine (first compound 0.8 µM), 0.525. Further, the relative viability with XMD8-85 + Decitabine (first compound 2.53 µM) was 0.504; with XMD8-85 + Decitabine (first compound 8 µM), 0.361; with 4EGI-1 + Luminespib (first compound 0.5 µM), 0.917; with 4EGI-1 + Luminespib (first compound 1.581 µM) it was 0.414; in the assay with 4EGI-1 + Luminespib (first compound 5 µM), 0.411; with 4EGI-1 + Luminespib (first compound 15.81 µM) it was 0.37. In addition, the relative viability was 0.236 in the assay with 4EGI-1 + Luminespib (first compound 50 µM); 1.05 in the assay with 4EGI-1 + Pemetrexed (first compound 0.5 µM); 0.952 with 4EGI-1 + Pemetrexed (first compound 1.581 µM); 0.833 with 4EGI-1 + Pemetrexed (first compound 5 µM); 0.841 in the assay with 4EGI-1 + Pemetrexed (first compound 15.81 µM); 0.463 with 4EGI-1 + Pemetrexed (first compound 50 µM).
